Test results as given in PubChem BioAssay (NCI).
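Cells were grown in 96-well plates and exposed to each compound for 48 hours at five concentrations; endpoints were interpolated linearly between bracketing concentrations, or set to the highest concentration if not reached. The concentration for 50% growth inhibition is given as GI50. TGI is the concentration that stops growth completely.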

Tests used:
Assay in all cases: NCI-60 cell line screen, 48 h
[1] = test system: RPMI-8226 leukemia
[2] = test system: U251 CNS
[3] = test system: MDA-MB-435
[4] = test system: HS 578T breast
[5] = test system: RXF 393 renal
[6] = test system: HT29 colon
[7] = test system: NCI/ADR-RES ovarian
[8] = test system: MCF7 breast
[9] = test system: OVCAR-4 ovarian
[10] = test system: SN12C renal

SMILES	GI50 [1] [µM]	TGI [1] [µM]	GI50 [2] [µM]	TGI [2] [µM]	GI50 [3] [µM]	TGI [3] [µM]	GI50 [4] [µM]	TGI [4] [µM]	GI50 [5] [µM]	TGI [5] [µM]	GI50 [6] [µM]	TGI [6] [µM]	GI50 [7] [µM]	TGI [7] [µM]	GI50 [8] [µM]	TGI [8] [µM]	GI50 [9] [µM]	TGI [9] [µM]	GI50 [10] [µM]	TGI [10] [µM]
COc1cc(-n2ccnc2)cc(OC)c1OC	75.6	> 100	58.6	> 100	75.6	> 100	> 100	> 100	> 100	> 100	> 100	> 100	34.2	> 100	41.7	> 100	> 100	> 100	86	> 100
COc1ccc(/C=C\c2cc(OC)c(OC)c(OC)c2)cc1OCC(=O)Nc1ccc2nc(C)sc2c1	1.98	4.69	3.59	> 100	2.13	6.18	4.32	> 100	5.06	> 100	3.31	> 100	2.36	8	0.748	12.9	2.64	9.18	3.53	> 100
Cc1ccc(-c2nc([P+](c3ccccc3)(c3ccccc3)c3ccccc3)c(Nc3ccccc3)o2)cc1	0.227	0.739	0.585	2.14	0.457	1.63	1.27	3.31	0.926	2.34	0.344	1.45	1.11	2.58	0.346	1.43	0.32	1.26	0.541	1.84
Cc1ccc(NCCN(C)C)c2c(=O)c3ccccc3sc12	1.67	4.21	1.83	3.82	1.71	3.47	1.59	3.76	1.96	4.59	1.62	3.77	1.93	4.6	1.47	2.95	2.67	8.76	2.45	9.61
COc1cc2c(=O)n(CCN(C)C)c3c4cc5c(cc4ccc3c2cc1OC)OCO5	0.159	0.8	0.153	1.92	0.329	1.29	0.973	> 13.1	0.363	1.14	0.178	5.43	0.256	> 50	0.102	6.16	0.445	5.53	0.226	> 50
COc1ccc(N(/C=C/C(=O)C(F)(F)F)CC(=O)c2ccc(Cl)cc2)cc1	13.4	44.7	13.7	26.7	5.68	22	25	67.3	16.3	48.5	25	95.6	15.7	53.1	18.4	> 100	18	49.1	11.2	23.3
COc1ccc(Nc2nc3cc(N)cc(N)c3nc2-c2ccccc2)cc1OC	7.95	28.3	26	> 100	16.3	32.1	18.5	50.2	8.15	49.4	25.2	52.7	17.2	42.7	20.5	44.8	18.7	52.1	16.7	44.1
N#Cc1c(N)nc(NCc2ccccc2)c(C#N)c1-c1ccc(Cl)cc1Cl	33.5	> 100	> 61.9	> 100	> 46.8	> 100	85.7	> 100	52.4	> 100	> 100	> 100	> 68.1	> 100	> 100	> 100	24.7	99.3	> 100	> 100
CC(=O)c1cc(C(=O)c2ccc3c(c2)Sc2ccccc2N3)c2c(C)cccn12	0.412	83.4	0.325	24	0.0464	0.275	0.266	> 36.3	0.252	2.37	0.272	1.8	0.184	18	0.117	> 100	2.13	> 100	0.686	> 100
COc1cc(/C=C/c2cc(/C=C/c3ccc(O)c(OC)c3)n(C(=O)Nc3ccc(Cl)cc3)n2)ccc1O	0.376	2.48	0.525	5.33	0.149	0.392	0.732	5.63	0.261	0.789	2.58	6.26	0.363	3.68	0.486	3.39	0.803	5.73	0.455	21.6
CN(C)c1ccc(/C=c2/c3ccccc3n3c2c2cc(F)ccc2[n+]3C)cc1	0.715	3.55	0.905	–	3.84	11.9	3.99	25.4	5.91	21.8	3.49	40.8	48.4	> 100	6.57	32.1	15.7	34.2	–	2.7
CC1=C[C@H]2C[C@H](C)[C@H]3CC[C@H](C)[C@]4(C1)C(=O)C(O)=C(C)C(=O)[C@@]324	13.1	32.4	32.1	> 100	41.1	> 100	24.7	67.5	60.9	> 100	27.8	> 100	17.2	48.4	> 100	> 100	29.8	> 100	28.7	> 100
COc1cccc(/C(C)=N/NC(=O)CSc2nc3ccccc3c(=O)n2CCc2ccc(S(N)(=O)=O)cc2)c1	0.943	> 100	1.98	3.67	3.18	12.6	3.54	15.9	2.71	7.7	2.36	5.31	21.3	> 100	3.14	15.4	1.85	4.28	4.52	19.5
COc1cc(C2C3=C(COC3=O)N(CCO)c3cc4c(cc32)OCO4)cc(OC)c1O (configuration not stated)	1.57	> 50	2.19	> 50	0.343	1.53	1.3	4.59	0.576	2.11	1.38	5.32	11.3	> 50	1.19	> 50	2.99	> 50	> 12.1	> 50
Cc1cc(Nc2cc(N3CCN(C)CC3)nc(Sc3ccc(NC(=O)C4CC4)cc3)n2)n[nH]1	4.02	> 10	3.05	> 10	2.11	> 10	3.46	> 10	2.17	> 10	1.18	> 10	> 10	> 10	0.492	> 10	> 10	> 10	3.59	> 10
CNS(=O)(=O)OCC1OC(n2cnc3c(N)ncnc32)C(O)C1O (configuration not stated)	> 100	> 100	> 100	> 100	> 100	> 100	> 100	> 100	> 100	> 100	> 100	> 100	> 100	> 100	> 100	> 100	> 100	> 100	> 100	> 100
O=C1c2ccccc2C(=O)c2c(NCC3CO3)ccc(NCC3CO3)c21 (configuration not stated)	–	33.3	–	8.38	–	2.58	–	15.3	–	11.8	–	12.8	–	11.4	–	1.25	–	34	–	2.06
O=C(NCc1ccco1)c1cccc(NC2=C(Cl)C(=O)N(Cc3ccccc3)C2=O)c1	1.06	3.29	11.5	60.5	2.33	7.39	15.4	> 100	4.22	26.2	18.4	> 100	6.53	34.3	11.5	> 100	6.74	64.3	22.1	> 100
CCOC(=O)c1cnn2c3ccccc3n(S(=O)(=O)c3ccc(OC)cc3)c12	0.37	28.2	0.377	> 100	0.0473	> 100	0.459	> 100	0.232	–	0.31	> 100	0.23	24.5	0.0998	> 100	1.58	> 100	0.625	> 57.5
O=C(Nc1cc(Oc2cc(F)c(NC(=O)C3(C(=O)Nc4ccc(F)cc4)CC3)cc2F)ccn1)C1CC1	2.95	6.51	3.96	> 46.3	1.53	4.26	2.5	6.82	2.49	4.91	0.929	4.74	2.79	8.73	0.936	9.55	3.93	> 30.8	2.68	> 100
O=C(C[P+](c1ccccc1)(c1ccccc1)c1ccccc1)C[P+](c1ccccc1)(c1ccccc1)c1ccccc1	0.271	1.81	0.828	2.23	0.233	0.666	0.581	4.5	0.2	0.605	0.285	0.734	0.383	11	0.332	1.6	0.135	0.269	0.682	2.14
Nc1ccccc1C#C/C=C\C#Cc1c(F)c(F)c(F)c(F)c1F	1.25	21.7	13	25.7	14.9	31.7	32.7	> 100	4.74	22	19.7	50.7	19.5	41.2	24.6	> 100	20.2	96	7.37	20.5
COc1ccc(C2C=C(c3ccc(Cl)cc3)N=C3SC=C(C)N32)c(Br)c1 (configuration not stated)	2.18	9.67	3.34	13.1	3.02	14.9	2.19	7.5	2.39	9.59	3.62	12.7	4.22	> 100	2.32	12.5	3.89	34.6	3.23	15.1
Cc1c(C(N)=O)sc2c1c(=O)n(Cc1ccccc1)c1nnc(-c3ccc(Br)cc3)n21	4.72	47.7	1.56	13	3.49	20.7	5.2	54.9	1.81	7.15	2.32	13.4	2.28	11.2	3.4	14.6	2.51	15.8	2.36	14.1
